Data reported in patent US8304394B2, “Low side effect pharmaceutical composition containing isoniazid” (priority 2008, dated 2012).
Like-named read-outs stand apart in the source and are kept apart here.

Columns and labels:
rabbits = conditions: pretreatment with amidase inhibitor; cited from earlier work
[1] = target: T1, cDNA expressed human cytochrome P450 2E1 (CYP2E1) (Homo sapiens, UniProt P05181)
[2] = target: T2, human liver microsomal cytochrome P450 2E1 (CYP2E1) (Homo sapiens, UniProt P05181); assay: Chlorzoxazone hydroxylation inhibition (6-OH-CZX by LC/MS/MS)
[3] = target: T1, cDNA expressed human cytochrome P450 2E1 (CYP2E1); conditions: 40 min, pH 7.4
CYP2E1 [4] = target: T3, CYP2E1 (Homo sapiens, UniProt P05181); assay: Chlorzoxazone hydroxylation inhibition (6-OH-CZX by LC/MS/MS); conditions: human, microsomes, pH 7.4
[5] = target: T2, human liver microsomal cytochrome P450 2E1 (CYP2E1); conditions: for 6-OH-CZX concentration: human, 30 min, pH 7.4
CYP2E1 [6] = target: T3, CYP2E1; assay: in vitro; conditions: for inhibition at 40 min, 16.5 µM: tested concentration 16.5 μM
[7] = tested on: Male SD (Sprague-Dawley) rats; assay: Galactose elimination capacity (GEC) residual liver function test in the rat INH study; assay type: in vivo; conditions: i.p. once daily for 21 days, galactose 0.5 g/kg i.v., mean±SD, control 4.9±0.8
Experimental: (§1) Animals were randomized into one of five groups, each involving three treatments. The first treatment involved either a BNPP injection of 25 mg/kg or a BNPP vehicle (VEH1) injection (saline). […] The second treatment involved injections of either 100 mg/kg DSF or DSF vehicle (VEH2, corn oil). DSF was dissolved in corn oil and i.p. injected at a volume of […]. The third treatment involved injections of INH (25 mg/kg) or INH vehicle (VEH3, saline). INH was dissolved in saline (0.9% NaCl), and i.p. injected at a volume of […]. The first treatment (BNPP or VEH1) was administered 30 minutes before the third treatment (INH or VEH3), and the second treatment (DSF or VEH2) was administered 15 minutes before the third treatment (INH or VEH3).
• (1) Normal control group (NC, n=12): continuously injections of VEH1, VEH2 and VEH3 intraperitoneally once every day for 21 days; • (2) INH group (INH, n=7): continuously injections of INH, VEH1 and VEH2 intraperitoneally once every day for 21 days; • (3) BNPP-INH group (BNPP-INH, n=7): continuously injections of BNPP, INH and VEH2 intraperitoneally once every day for 21 days; • (4) DSF-INH group (DSF-INH, n=7): continuously injections of DSF, INH and VEH1 intraperitoneally once every day for 21 days; • (5) BNPP-DSF-INH group (BNPP-DSF-INH, n=7): continuously injections of BNPP DSH and INH intraperitoneally once every day for 21 days; […]

[8] = tested on: Male SD (Sprague-Dawley) rats; assay: Liver histopathology by light and electron microscopy in the rat INH study; assay type: in vivo
Experimental: as §1
• (1) Normal control group (NC, n=12): continuously injections of VEH1, VEH2 and VEH3 intraperitoneally once every day for 21 days; • (2) INH group (INH, n=7): continuously injections of INH, VEH1 and VEH2 intraperitoneally once every day for 21 days; • (3) BNPP-INH group (BNPP-INH, n=7): continuously injections of BNPP, INH and VEH2 intraperitoneally once every day for 21 days; • (4) DSF-INH group (DSF-INH, n=7): continuously injections of DSF, INH and VEH1 intraperitoneally once every day for 21 days; • (5) BNPP-DSF-INH group (BNPP-DSF-INH, n=7): continuously injections of BNPP DSH and INH intraperitoneally once every day for 21 days;
After the rats were sacrificed, the livers were subjected to histology analysis.

[9] = tested on: Male SD (Sprague-Dawley) rats; assay: Rat 21-day INH hepatotoxicity study: plasma AST/ALT, body and relative liver weight; conditions: i.p. once daily for 21 days, INH 25 mg/kg, mean±SD
[10] = pH 7.4, Inhibition of CYP 2E1 (%)

T1 sequence (P05181 whole entry): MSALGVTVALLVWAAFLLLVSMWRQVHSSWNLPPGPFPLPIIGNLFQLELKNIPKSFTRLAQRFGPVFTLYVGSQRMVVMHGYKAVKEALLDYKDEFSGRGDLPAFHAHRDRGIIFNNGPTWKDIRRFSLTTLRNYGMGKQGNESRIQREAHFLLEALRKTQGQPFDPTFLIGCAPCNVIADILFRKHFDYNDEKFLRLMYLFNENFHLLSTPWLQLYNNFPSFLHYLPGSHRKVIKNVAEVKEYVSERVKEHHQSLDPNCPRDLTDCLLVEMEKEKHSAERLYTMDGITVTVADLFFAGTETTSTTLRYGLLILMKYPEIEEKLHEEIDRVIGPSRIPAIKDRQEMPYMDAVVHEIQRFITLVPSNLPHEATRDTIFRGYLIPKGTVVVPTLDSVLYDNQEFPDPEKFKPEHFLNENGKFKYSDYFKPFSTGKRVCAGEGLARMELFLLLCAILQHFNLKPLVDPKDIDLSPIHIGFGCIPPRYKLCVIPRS
T2 sequence (P05181 whole entry): as above
T3 sequence (P05181 whole entry): as above

Q: For `O=[N+]([O-])c1ccc(OP(=O)(O)Oc2ccc([N+](=O)[O-])cc2)cc1` [BNPP, bis-p-nitrophenyl phosphate], which “effect on isoniazid-induced hepatotoxicity” value (rabbits) is on record?
A: Its value is “can prevent isoniazid-induced hepatotoxicity”.

Q: Which “Inhibition of CYP 2E1 (%)” value ([1]; tested concentration 16.5 μM) does the source give for `COc1c(O)cc2oc(Oc3ccc(O)cc3)cc(=O)c2c1O` [Capillarisin] here?
A: The value was 49.05 ± 5.18%.

Q: What about the “Inhibition of CYP 2E1 (%)” value ([1]; tested concentration 33 μM) of the same compound?
A: The value was 60.54 ± 5.91%.

Q: And the “Inhibition of CYP 2E1 (%)” value ([1]; tested concentration 66 μM)?
A: The value was 76.12 ± 1.89%.

Q: What about the “Inhibition of CYP 2E1 (%)” value ([2]; tested concentration 16.5 μM) of the same compound?
A: The value was 32.89 ± 2.46%.

Q: What about the “Inhibition of CYP 2E1 (%)” value ([2]; tested concentration 33 μM) of the same compound?
A: Its value is 46.22 ± 2.65%.

Q: And the “Inhibition of CYP 2E1 (%)” value ([2]; tested concentration 66 μM)?
A: The value was 57.31 ± 1.31%.

Q: For `CCN(CC)C(=S)S` [DDTC, Diethyldithiocarbamic acid], which HFC synthesis ([3]; 0.03 μM) is on record?
A: The HFC synthesis was 256.00 pmol.

Q: What about the HFC synthesis ([3]; 0.091 μM) of the same compound?
A: The HFC synthesis was 202.00 pmol.

Q: What about the HFC synthesis ([3]; 2.47 μM) of the same compound?
A: Its HFC synthesis is 55.18 pmol.

Q: What about the HFC synthesis ([3]; 7.4 μM) of the same compound?
A: Its HFC synthesis is 21.08 pmol.

Q: What about the HFC synthesis ([3]; 22.2 μM) of the same compound?
A: The HFC synthesis was 15.10 pmol.

Q: And the inhibition at 30 min, 50 μM (CYP2E1 [4])?
A: The inhibition at 30 min, 50 μM was 48.7%.

Q: What about the inhibition at 30 min, 100 μM (CYP2E1 [4]) of the same compound?
A: The inhibition at 30 min, 100 μM was 87.6%.

Q: And the 6-OH-CZX concentration ([5]; 50 μM)?
A: Its 6-OH-CZX concentration is 1644.5 pmol.

Q: What about the 6-OH-CZX concentration ([5]; 100 μM) of the same compound?
A: Its 6-OH-CZX concentration is 431.2 pmol.

Q: And the inhibition at 40 min, 0.091 μM (CYP2E1 [6]; pH 7.4, Inhibition of CYP 2E1 (%), DDTC 0.091 μM)?
A: Its inhibition at 40 min, 0.091 μM is 8.71%.

Q: What about the inhibition at 40 min, 2.47 μM (CYP2E1 [6]; pH 7.4, Inhibition of CYP 2E1 (%), DDTC 2.47 μM) of the same compound?
A: Its inhibition at 40 min, 2.47 μM is 75.1%.

Q: What about the inhibition at 40 min, 7.4 μM (CYP2E1 [6]; pH 7.4, Inhibition of CYP 2E1 (%), DDTC 7.4 μM) of the same compound?
A: Its inhibition at 40 min, 7.4 μM is 90.5%.

Q: What about the inhibition at 40 min, 22.2 μM (CYP2E1 [6]; pH 7.4, Inhibition of CYP 2E1 (%), DDTC 22.2 μM) of the same compound?
A: Its inhibition at 40 min, 22.2 μM is 93.2%.

Q: Which results are given for `NNC(=O)c1ccncc1` [INH, isoniazid]?
A: GEC value [7]: 3.4±0.6 mg/min·kg; hepatic necrosis (EM results) ([8]; daily i.p. injections for three weeks): no hepatic necrosis was observed; liver injury (histopathology) ([8]; daily i.p. injections for three weeks, versus control group): hepatocellular damage; hepatocyte rough endoplasmic reticulum (rER) versus control ([8]; electron microscopy 9,000×): increased significantly; peak plasma ALT activity ([9]; control 44±6): 52±3 IU/L; peak plasma AST activity ([9]; control 116±11): 129±10 IU/L

Q: Which inhibition at 30 min, 16.5 µM (CYP2E1 [4]) does the source give for `CC(Cc1ccc(O)c(O)c1)C(C)Cc1ccc(O)c(O)c1` (centres unmarked) [Nordihydroguaiaretic acid] here?
A: The inhibition at 30 min, 16.5 µM was 49.8 ± 2.42%.

Q: What about the inhibition at 30 min, 66 µM (CYP2E1 [4]) of the same compound?
A: The inhibition at 30 min, 66 µM was 96.98 ± 0.19%.

Q: What about the “Inhibition of CYP 2E1 (%)” value ([5]; microsomes, 33 µM) of the same compound?
A: Its value is 67.68. ± 2.24%.

Q: And the inhibition at 40 min, 33 µM (CYP2E1 [6]; pH 7.4)?
A: Its inhibition at 40 min, 33 µM is 92.4 ± 2.2%.

Q: And the inhibition at 40 min, 16.5 µM (CYP2E1 [6]; [10])?
A: Its inhibition at 40 min, 16.5 µM is 76.5 ± 3.86%.

Q: And the inhibition at 40 min, 66 µM (CYP2E1 [6]; pH 7.4, Inhibition of CYP 2E1 (%), tested concentration 66 μM)?
A: The inhibition at 40 min, 66 µM was 97.99 ± 0.66%.

Q: Which “Inhibition of CYP 2E1 (%)” value ([3]; 33 µM) does the source give for `O=c1ccc2ccc(O)cc2o1` [Umbelliferone] here?
A: The value was −571.97 ± 117.56%.

Q: And the “Inhibition of CYP 2E1 (%)” value ([3]; 66 µM)?
A: Its value is −1081.56 ± 168.00%.

Q: What about the inhibition at 40 min, 16.5 µM (CYP2E1 [6]; [10]) of the same compound?
A: The inhibition at 40 min, 16.5 µM was -280 ± 19.5%.

Q: Which “Inhibition of CYP 2E1 (%)” value ([1]; tested concentration 16.5 μM) does the source give for `O=c1cc(-c2ccccc2)oc2ccc3ccccc3c12` [β-naphthoflavone] here?
A: Its value is 6.52 ± 6.64%.

Q: And the “Inhibition of CYP 2E1 (%)” value ([1]; tested concentration 33 μM)?
A: The value was 16.83 ± 0.96%.

Q: And the “Inhibition of CYP 2E1 (%)” value ([1]; tested concentration 66 μM)?
A: Its value is 15.40 ± 12.94%.
